This note sets out measurements from ChEMBL document CHEMBL1201862, “PubChem BioAssay data set” (2004).

Among the test systems are Malme-3M; MDA-MB-231; SF-268; PC-3; K562; HT-29; NCI-H522; HCC 2998; HOP-92; U-251; HOP-62; SK-MEL-28; OVCAR-4; M14; NCI/ADR-RES; A498; NCI-H460; 786-0; SR; SNB-75.
What all share (experiment): NCI-60 cell line screen, 48 h

Each structure is given as a SMILES string.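 Results reflect a 48-hour exposure of cells in 96-well plates to compound at five concentrations. Abbreviation: GI50, concentration required for 50% inhibition of growth.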 The source made the active and inactive calls. Rule as the data show it: active = GI50 up to about 1.1 µM and inactive = higher. Where a SMILES comes first, the peptide text is derived from it. The star is where a group is joined. Boc = CC(C)(C)OC(=O)*; nBu = CCCC* Some results are limits rather than exact numbers.

On to `OCCN(CCO)c1ncnc2[nH]cnc12`, for which the GI50 with Malme-3M was > 100 µM (inactive); in the assay with MDA-MB-231, 80.9 µM (inactive); in the assay with SF-268 it was > 100 µM (inactive); in the assay with PC-3, > 100 µM (inactive); in the assay with K562, > 100 µM (inactive); in the assay on HT-29, > 100 µM (inactive). The GI50 in the assay on NCI-H522, in the assay with HCC 2998, in the assay on HOP-92, with U-251, with HOP-62 and in the assay on SK-MEL-28 was > 100 µM (inactive) throughout. Further, the GI50 with OVCAR-4, with M14, in the assay with NCI/ADR-RES, with A498, in the assay with NCI-H460 and with 786-0 was > 100 µM (inactive) in each case.
`Cc1ccc(/C=C2\Cc3cccc(C)c3C2=O)c(C(=O)O)c1`: the GI50 in the assay on Malme-3M was > 100 µM (inactive); with MDA-MB-231, 66.2 µM (inactive); in the assay on SF-268, > 100 µM (inactive); in the assay on PC-3, 99.5 µM (inactive); in the assay on K562 it was 99.8 µM (inactive); in the assay with HT-29, > 100 µM (inactive). The GI50 with NCI-H522 is 22.3 µM (inactive); in the assay with HCC 2998, 39.1 µM (inactive); in the assay with HOP-92, 17.3 µM (inactive); with SR, 90.4 µM (inactive); with U-251, 57.9 µM (inactive); in the assay with HOP-62, > 100 µM (inactive). The GI50 in the assay on SK-MEL-28 is 97.3 µM (inactive); with OVCAR-4 it was 21.1 µM (inactive); with SNB-75 it was > 100 µM (inactive); in the assay with M14 it was > 100 µM (inactive); with A498 it was > 100 µM (inactive); in the assay on NCI-H460, > 100 µM (inactive). The GI50 in the assay with 786-0 was > 100 µM (inactive).
On to `COC(=O)[C@@H](Nc1ccccc1)[C@@]1(C(=O)OC)SC12c1ccccc1-c1ccccc12`, for which the GI50 was 49.7 µM (inactive) in the assay on Malme-3M; > 100 µM (inactive) in the assay with MDA-MB-231; > 100 µM (inactive) in the assay on SF-268; 35 µM (inactive) with PC-3; 56.4 µM (inactive) in the assay on K562; 34.3 µM (inactive) in the assay with HT-29. In addition, the GI50 in the assay on NCI-H522 was 22 µM (inactive); with HCC 2998, > 100 µM (inactive); with HOP-92, 9.29 µM (inactive); with U-251, 44.1 µM (inactive); in the assay with HOP-62 it was > 100 µM (inactive); in the assay on SK-MEL-28, > 100 µM (inactive). Besides, the GI50 in the assay with OVCAR-4 is 69.2 µM (inactive); with M14, > 100 µM (inactive); in the assay with NCI/ADR-RES it was > 100 µM (inactive); in the assay on A498, > 100 µM (inactive); with 786-0 it was 29.4 µM (inactive).
With `CCN(CC)Cc1sc2nc3ccccc3n2c1-c1ccc(OC)cc1`, the GI50 with Malme-3M was 17.2 µM (inactive); in the assay on MDA-MB-231, 60.4 µM (inactive); in the assay on SF-268 it was 24.3 µM (inactive); in the assay with PC-3, 17.4 µM (inactive); in the assay on K562, 3.22 µM (inactive); in the assay with HT-29 it was 18.5 µM (inactive). Further, the GI50 in the assay on NCI-H522 is 4.11 µM (inactive); in the assay on HCC 2998, 45.6 µM (inactive); with HOP-92 it was 27.8 µM (inactive); with U-251, 29.2 µM (inactive); in the assay on HOP-62, 65.5 µM (inactive); with SK-MEL-28, 22.7 µM (inactive). In addition, the GI50 in the assay with OVCAR-4 was 53.2 µM (inactive); in the assay on SNB-75, 33.8 µM (inactive); in the assay with M14, 25.6 µM (inactive); with NCI/ADR-RES, 15 µM (inactive); in the assay with A498, 22.9 µM (inactive); in the assay on 786-0, 35.2 µM (inactive).
For the molecule `CCCCOc1ccc(CC(NC(=O)OC(C)(C)C)C(=O)NC(C)C(=O)NC(Cc2ccccc2)C(=O)NCC(N)=O)cc1` (stereo not given) (Boc-Y(nBu)AFG-NH2; configuration not given here), the GI50 in the assay with Malme-3M is > 100 µM (inactive); in the assay on MDA-MB-231, 82.4 µM (inactive); in the assay with SF-268, > 100 µM (inactive); in the assay with PC-3, > 100 µM (inactive); in the assay with K562, > 100 µM (inactive); in the assay on HT-29 it was > 100 µM (inactive). The GI50 with NCI-H522 was 66.5 µM (inactive); in the assay on HCC 2998, > 100 µM (inactive); with HOP-92 it was 61.4 µM (inactive); with U-251 it was 59.4 µM (inactive); in the assay on HOP-62 it was > 100 µM (inactive); with SK-MEL-28, 91 µM (inactive). Besides, the GI50 in the assay on OVCAR-4, with SNB-75, in the assay with M14, in the assay with NCI/ADR-RES, in the assay on A498 and in the assay with NCI-H460 was > 100 µM (inactive) in each case. The GI50 in the assay on 786-0 is > 100 µM (inactive).
As to `COc1cc(C2c3cc4c(cc3OC(Nc3ccccc3)C2C)OCO4)cc(OC)c1O` (stereo not given), the GI50 in the assay with Malme-3M is 5.47 µM (inactive); in the assay with MDA-MB-231, 4.33 µM (inactive); with SF-268 it was 7.48 µM (inactive); with PC-3, 2.8 µM (inactive); in the assay with K562, 1.97 µM (inactive); in the assay on HT-29, 3.85 µM (inactive). Moreover, the GI50 was 2.35 µM (inactive) with NCI-H522; 4.12 µM (inactive) in the assay on HCC 2998; 16.7 µM (inactive) in the assay on HOP-92; 3.95 µM (inactive) in the assay on U-251; 5.57 µM (inactive) in the assay on SK-MEL-28; 11.8 µM (inactive) with OVCAR-4. Moreover, the GI50 in the assay with SNB-75 is 1.63 µM (inactive); with M14, 15.5 µM (inactive); in the assay with NCI/ADR-RES it was 2.38 µM (inactive); with 786-0 it was 7.5 µM (inactive).
As for `COc1ccc(CC2Cc3ccccc3CCN2)cc1OC` (stereo not given), the GI50 in the assay with Malme-3M was 25.5 µM (inactive); in the assay with MDA-MB-231 it was 44.5 µM (inactive); in the assay with SF-268, > 50 µM (inactive); in the assay with PC-3, > 50 µM (inactive); in the assay on K562, 20 µM (inactive); in the assay with HT-29, 13.8 µM (inactive). Moreover, the GI50 is > 50 µM (inactive) in the assay on HCC 2998; 17.9 µM (inactive) in the assay on HOP-92; > 50 µM (inactive) in the assay on U-251; 40.5 µM (inactive) with HOP-62; 19.3 µM (inactive) with SK-MEL-28; > 50 µM (inactive) with OVCAR-4. In addition, the GI50 is 31.1 µM (inactive) in the assay on SNB-75; 16.2 µM (inactive) in the assay on M14; > 50 µM (inactive) in the assay with NCI/ADR-RES; > 50 µM (inactive) with A498; 37.4 µM (inactive) in the assay on NCI-H460; 26.3 µM (inactive) in the assay with 786-0.
With `CCOC(=O)C(CC(C)C)NC(=O)C(Cc1ccc(N(CCCl)CCCl)cc1)NC(C)=O` (stereo not given), the GI50 in the assay with Malme-3M was 2.44 µM (inactive); in the assay on MDA-MB-231 it was 5.86 µM (inactive); in the assay on SF-268, 4.07 µM (inactive); with PC-3, 15.8 µM (inactive); in the assay with K562, 4.81 µM (inactive); in the assay on HT-29, 11.7 µM (inactive). Besides, the GI50 in the assay with NCI-H522 is 1.57 µM (inactive); in the assay on HCC 2998, 13.2 µM (inactive); in the assay on HOP-92, 0.63 µM (active); with U-251, 7.91 µM (inactive); with HOP-62, 3.01 µM (inactive); in the assay with SK-MEL-28 it was 5.64 µM (inactive). In addition, the GI50 with OVCAR-4 is 8.89 µM (inactive); with SNB-75 it was 5.96 µM (inactive); with M14, 2.7 µM (inactive); with NCI/ADR-RES it was 18.1 µM (inactive); with A498 it was 15.7 µM (inactive); in the assay on NCI-H460, 2.75 µM (inactive). For the same molecule, the GI50 in the assay with 786-0 was 2.02 µM (inactive).
In the case of `CC[C@@]1(N(C)C)C(=O)OCc2c1cc1n(c2=O)Cc2cc3ccccc3nc2-1`, the GI50 was 20.2 µM (inactive) with Malme-3M; 96.6 µM (inactive) in the assay on MDA-MB-231; 17.3 µM (inactive) with SF-268; 58.3 µM (inactive) in the assay with PC-3; > 100 µM (inactive) in the assay with K562; 12.7 µM (inactive) in the assay on NCI-H522. The GI50 in the assay on HCC 2998 was 97.7 µM (inactive); with HOP-92 it was 19.1 µM (inactive); with U-251, 29.2 µM (inactive); in the assay with HOP-62, 16.9 µM (inactive); with SK-MEL-28, > 100 µM (inactive); in the assay on OVCAR-4, 47.1 µM (inactive). For the same molecule, the GI50 in the assay with SNB-75 is 12.8 µM (inactive); in the assay with M14, > 100 µM (inactive); in the assay on NCI/ADR-RES, 21.3 µM (inactive); in the assay on A498, 42.7 µM (inactive); in the assay with NCI-H460, 12.5 µM (inactive); in the assay on 786-0, 25.8 µM (inactive).
For `NC(Cc1cccc([N+](=O)[O-])c1)C(=O)O` (stereo not given), the GI50 in the assay with Malme-3M, in the assay with MDA-MB-231, in the assay on SF-268, with PC-3, in the assay with K562 and in the assay on HT-29 was > 100 µM (inactive) throughout. Further, the GI50 with NCI-H522 is > 100 µM (inactive); with HCC 2998, > 100 µM (inactive); in the assay on HOP-92 it was 61.5 µM (inactive); in the assay with U-251 it was > 100 µM (inactive); with HOP-62, > 100 µM (inactive); with SK-MEL-28, > 100 µM (inactive). In addition, the GI50 in the assay with OVCAR-4, with M14, in the assay on NCI/ADR-RES, with A498, in the assay on NCI-H460 and in the assay with 786-0 was > 100 µM (inactive) throughout.
With `C1=CN2C[n+]3ccc4ccccc4c3N=C2c2ccccc21`, the GI50 was 0.632 µM (active) with Malme-3M; 6.08 µM (inactive) in the assay with MDA-MB-231; 2.54 µM (inactive) in the assay with SF-268; 8.2 µM (inactive) with PC-3; 1.24 µM (inactive) in the assay on K562; 2.45 µM (inactive) with HT-29. Moreover, the GI50 in the assay on NCI-H522 was 0.622 µM (active); in the assay on HOP-92, 2.04 µM (inactive); in the assay on SR, 1.11 µM (active); with U-251, 0.356 µM (active); in the assay with HOP-62, 7.57 µM (inactive); in the assay with M14, 2.72 µM (inactive). The GI50 was 48.6 µM (inactive) in the assay with NCI/ADR-RES, 3.54 µM (inactive) in the assay with NCI-H460 and 2.88 µM (inactive) with 786-0.
